Marks after values point to notes of the source that are not given here.
What was measured:
[1] = Maximal excitation and emission wavelengths; format: physicochemical; settings: 50 μM in 0.1 M phosphate buffer, 30° C.; SD ±2 nm
Procedure: Maximal excitation and emission wavelengths. A stock solution in ethanol of each compound (10 μl, 5 mM) was added to 990 μl of sodium phosphate buffer (0.1 M, pH 8.0, final substrate concentration 50 μM) in a 1-cm quartz cuvette. The quartz cuvette was scanned from 200 to 500 nm for absorption spectra with a Spectra Max M2 spectrophotometer. Maximal excitation and emission wavelengths were obtained from scanning from 250 to 600 nm and 360 to 600 nm by a 2 nm interval at 30° C., respectively.

[2] = Dependence of relative fluorescent intensity on pH values; format: physicochemical; settings: pH 6.0 to 9.0, sodium phosphate or Tris/HCl buffer, 25 μM
Procedure: The dependence of relative fluorescent intensity on pH values. 5-amino-2-methoxypyridine (6) was used to determine whether protonization/de-protonization affects the relative fluorescent intensities of the reporters. A stock solution of (6) in ethanol (5 μl, 5 mM) was added to 995 μl 0.1 M sodium phosphate buffer (from pH 6.0 to pH 8.0) or 0.1 M Tris/HCl buffer (pH 9.0) in a quartz cuvette (final substrate concentration 25 μM). Relative fluorescent unit/intensity (RFU) for emission spectra was recorded by a 2 nm interval at room temperature using a fixed excitation wavelength (λ=302 nm). The RFU of each pH value was an average of triplicates and the standard deviation for each point was less than 1%. Similarly, the RFU of the excitation spectrum was recorded by a 2 nm interval at room temperature using a fixed emission wavelength (λ=396 nm) in 0.1 M phosphate buffer (pH 8.0).

[3] = Fluorescence quantum yield; format: physicochemical; settings: 10 μM, 1% ethanol in water, excitation 290 nm, standard 3-aminopyridine; SD under ±5%
Procedure: Quantum yield. The fluorescence quantum yield, φf, was calculated according to the following equation:
ØF=Østd*(I/Istd)*(ODstd/OD)*(n/nstd)^2,
wherein ØF is the quantum yield of the tested fluorescent reporter; Østd is the fluorescence quantum yield of the standard; I and Istd are the integrated emission intensities of the sample and the standard, respectively; OD and ODstd are the absorbance of the sample and standard, respectively, at the desired wavelength λex; and n and nstd are the indexes of refraction of the sample and standard solutions, respectively (Horspool and Song (Eds.), CRC Handbook of Organic Photochemistry I, pp 234-235, CRC Press, Boca Raton, Fla., 1995).
In this example, 3-aminopyridine in water at the maximal excitation wavelength of 290 nm was used as a standard (Østd=0.32, εmax=2800 M^−1 cm^−1) (see, e.g., Weisstuch et al., J. Phys. Chem., 72:1982-1987 (1968)). In order to minimize inner filter effects, the optical densities of samples at the excitation wavelength (λ=290 nm) were kept in the range of 0.095-0.13 (less than 0.150-0.165). The final concentration of each tested sample in a quartz cuvette was 10 μM with 1% ethanol in water, same as that for the standard. The integrated area of fluorescent intensity for the standard or the samples was based on the area between 360 and 500 nm. The difference of the index of refraction between the standard and the sample was neglected because (1) all measurements were performed in the same quartz cuvette and spectrofluorimeter; (2) the final concentrations of the sample and the standard were the same; and (3) the structures of the sample and standard were very similar, i.e., only one pyridine ring. The quantum yields presented in Table 1 were based on calculation of the average of OD and integrated fluorescent intensities of triplicates. The standard deviation for each quantum yield was less than ±5%.

[4] = Molar extinction coefficient of fluorescent reporters; format: physicochemical; settings: H2O containing 1% ethanol, 290 nm, 30° C., 10-50 μM
Procedure: Molar extinction coefficient. According to Beer's law, Aλ=ε*C*L, where Aλ is the absorbance at wavelength (λ nm); ε is called the molar extinction coefficient; L is the width of the sample cuvette; and C is the concentration of the solute. In this example, a series of concentrations falling between 10 and 50 μM (final concentration) for each fluorescent reporter was used for determination of the molar extinction coefficient. Assays were performed in a quartz cuvette (1 cm optical passage). 10 μl of a stock solution of a reporter in ethanol (1, 2, 3, 4, or 5 mM) was added to 990 μl H2O. The resulting mixture was degassed by sonication with ultrasonic cleaner Model 750 (VWR International; Wester, Pa.) for 10 seconds at a power level of 9. Measurements were performed with a Spectra Max M2 spectrophotometer (Molecular Devices; Sunnyvale, Calif.) at a wavelength of 290 nm. A slope (or extinction coefficient) was obtained by using an average absorbance of triplicate samples.

[5] = tested on: amidases, microsomes from High Five cells; assay: Specific activity, microsomes from High Five cells; settings: pH 8.0, 37° C.; NM = not measurable at the same protein concentration as other substrates
Procedure: Preparation of recombinant human FAAH. Transgenic expression of the human FAAH in a baculovirus system was performed by following the method described in Nishi et al., Arch. […] The cDNA encoding human FAAH (GenBank Accession No. NM—001441) was amplified by PCR using a human liver cDNA library (Invitrogen; Carlsbad, Calif.) as a template. The primer pair was 5′-[sequence]-3′ and 5′-[sequence]-3′. BglII and EcoRI endonuclease sites (underlined) were incorporated just upstream of the start codon and downstream of the stop codon of the coding sequence of FAAH, respectively. The PCR products were cloned into a pCR2.1 vector (Invitrogen) and the nucleotide sequence was verified by DNA sequencing. The cDNA fragments were then excised and directionally ligated to the BglII and EcoRI sites of the baculovirus transfer vector pAcUW21 (Lopez-Ferber et al., Baculovirus transfer vectors, in “Baculovirus Expression Protocols,” Richardson (Ed.), pp 25-63, Humana Press, Totowa, N.J., 1995). Recombinant baculoviruses harboring the human FAAH gene, Ac-hFAAH, were generated by co-transfection of Spodoptera frugiperda-derived Sf21 cells with the recombinant transfer vector plasmid and Bsu36I-cleaved BacPAK6 viral DNA (Clontech Laboratories; Mountain View, Calif.) as described in O'Reilly et al., Baculovirus Expression Vectors: A Laboratory Manual, Oxford University Press, New York, 1992. Trichoplusia ni-derived High Five cells (1×10^6 cells/ml) were inoculated with a high titer of Ac-hFAAH. At 72 hours post-infection, the infected cells were harvested by centrifugation at 2,000×g for 20 min at 4° C. and suspended in 50 mM Tris-HCl (pH 8.0) containing 150 mM NaCl, 1 mM EDTA, 1 μM pepstatin, 100 μM leupeptin, and 0.1 mg/ml aprotinin. The cell suspension was then homogenized using a Polytron homogenizer and centrifuged at 10,000×g for 20 min at 4° C. […]
Comparison of the lowest detection limits of protein concentration of FAAH toward colorimetric and fluorescent substrates. […] The lowest detection limits of microsomal fatty acid amide hydrolase (FAAH) by substrates were determined by the fact that the signal at 10 min after kinetic measurements are equal to or over three times the noise or basal line at 0 min. Colorimetric substrate (16) assays were performed in clear 96-well microtititer plates using an absorbance wavelength at 382 nm. The fluorescent substrates containing 5-amino-2-methoxypyridine (e.g., 10, 13) were measured at an excitation wavelength (302 nm), emission wavelength (396 nm), and auto cutoff wavelength (325 nm). Similarly, the fluorescent substrates containing 5-amino-2-methoxy-6-methylpyridine (e.g., 11, 14, and 17) were measured at an excitation wavelength (304 nm), emission wavelength (392 nm), and an auto cutoff wavelength of 325 nm. […]

[6] = target: T1, microsomal fatty acid amide hydrolase (FAAH) (Homo sapiens, UniProt O00519); assay: Lowest detection limits of microsomal FAAH toward colorimetric and fluorescent substrates; format: biochemical; settings: for base line, Average: 0 min; for signal, Average: 10 min
T1 construct: made in house; host or cells: Trichoplusia ni High Five cells infected with recombinant baculovirus Ac-hFAAH; microsomal fraction
T1 sequence (O00519 1-579): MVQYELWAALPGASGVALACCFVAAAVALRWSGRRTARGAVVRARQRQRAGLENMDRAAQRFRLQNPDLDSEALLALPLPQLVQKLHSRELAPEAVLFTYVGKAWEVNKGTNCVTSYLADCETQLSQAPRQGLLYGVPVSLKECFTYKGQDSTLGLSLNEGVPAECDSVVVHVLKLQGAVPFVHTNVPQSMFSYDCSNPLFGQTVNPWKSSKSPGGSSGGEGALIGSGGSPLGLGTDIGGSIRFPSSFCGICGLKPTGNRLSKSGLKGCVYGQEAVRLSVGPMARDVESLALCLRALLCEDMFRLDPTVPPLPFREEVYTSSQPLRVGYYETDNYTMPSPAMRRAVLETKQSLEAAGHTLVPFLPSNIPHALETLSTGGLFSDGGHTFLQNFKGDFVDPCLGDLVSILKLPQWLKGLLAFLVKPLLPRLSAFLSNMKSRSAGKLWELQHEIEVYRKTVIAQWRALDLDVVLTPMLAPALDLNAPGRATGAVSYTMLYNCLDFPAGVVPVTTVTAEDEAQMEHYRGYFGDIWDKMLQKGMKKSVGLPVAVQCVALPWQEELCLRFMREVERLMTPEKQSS
Procedure: (§1) Preparation of recombinant human FAAH. Transgenic expression of the human FAAH in a baculovirus system was performed by following the method described in Nishi et al., Arch. Biochem. Biophys., 445:115-123 (2006). The cDNA encoding human FAAH (GenBank Accession No. NM_001441) was amplified by PCR using a human liver cDNA library (Invitrogen; Carlsbad, Calif.) as a template. The primer pair was 5′-[…]-3′ and 5′-[…]-3′. BglII and EcoRI endonuclease sites (underlined) were incorporated just upstream of the start codon and downstream of the stop codon of the coding sequence of FAAH, respectively. The PCR products were cloned into a pCR2.1 vector (Invitrogen) and the nucleotide sequence was verified by DNA sequencing. The cDNA fragments were then excised and directionally ligated to the BglII and EcoRI sites of the baculovirus transfer vector pAcUW21 (Lopez-Ferber et al., Baculovirus transfer vectors, in “Baculovirus Expression Protocols,” Richardson (Ed.), pp 25-63, Humana Press, Totowa, N.J., 1995). Recombinant baculoviruses harboring the human FAAH gene, Ac-hFAAH, were generated by co-transfection of Spodoptera frugiperda-derived Sf21 cells with the recombinant transfer vector plasmid and Bsu36I-cleaved BacPAK6 viral DNA (Clontech Laboratories; Mountain View, Calif.) as described in O'Reilly et al., Baculovirus Expression Vectors: A Laboratory Manual, Oxford University Press, New York, 1992. Trichoplusia ni-derived High Five cells (1×10^6 cells/ml) were inoculated with a high titer of Ac-hFAAH. At 72 hours post-infection, the infected cells were harvested by centrifugation at 2,000×g for 20 min at 4° C. and suspended in 50 mM Tris-HCl (pH 8.0) containing 150 mM NaCl, 1 mM EDTA, 1 μM pepstatin, 100 μM leupeptin, and 0.1 mg/ml aprotinin. The cell suspension was then homogenized using a Polytron homogenizer and centrifuged at 10,000×g for 20 min at 4° C. The microsomal fraction was collected by ultracentrifugation of the supernatant at 100,000×g for 60 min at 4° C. The pellet was resuspended in 20 mM Tris-HCl (pH 8.0) containing 10% (w/v) glycerol and 1% (w/v) Triton-X 100 and stored at −80° C. until use.
(§2) Comparison of the lowest detection limits of protein concentration of FAAH toward colorimetric and fluorescent substrates. In general, all assays were performed in 96-well styrene flat-bottom microtiter plates with a Spectra Max M2 spectrophotometer at 37° C. for […]. The total volume of each well was 201 μl consisting of 0.1 M sodium phosphate buffer (pH 8.0) (190 μl) containing 1% glycerol and 0.1% Triton-X 100, stock or diluted protein solution (10 μl), and the substrate solution (1 μl) in ethanol (final concentration 200 μM for 10, 11, 13 or 14) or in DMSO (final concentration 25 μM for 12, 15, or 16; 50 μM for 17). The lowest detection limits of microsomal fatty acid amide hydrolase (FAAH) by substrates were determined by the fact that the signal at 10 min after kinetic measurements are equal to or over three times the noise or basal line at 0 min. Colorimetric substrate (16) assays were performed in clear 96-well microtititer plates using an absorbance wavelength at 382 nm. The fluorescent substrates containing 5-amino-2-methoxypyridine (e.g., 10, 13) were measured at an excitation wavelength (302 nm), emission wavelength (396 nm), and auto cutoff wavelength (325 nm). Similarly, the fluorescent substrates containing 5-amino-2-methoxy-6-methylpyridine (e.g., 11, 14, and 17) were measured at an excitation wavelength (304 nm), emission wavelength (392 nm), and an auto cutoff wavelength of 325 nm. In addition, an excitation wavelength (366 nm), emission wavelength (496 nm), and auto cutoff wavelength (495 nm) were used for the substrates (e.g., 12 and 15) containing 7-amino-4-trifluoromethyl coumarin.

[7] = target: T2, human FAAH, microsomes from FAAH cells (Homo sapiens, UniProt O00519); assay: Specific activity, microsomes from FAAH cells; format: biochemical
T2 construct: made in house; host or cells: Trichoplusia ni High Five cells infected with recombinant baculovirus Ac-hFAAH; microsomal fraction
T2 sequence (O00519 1-579): T1 sequence (O00519 1-579)
Procedure: as §1, §2
Specific activity determination. The assays for specific activities were performed as described above for the sensitivity assay. […]

[8] = target: T3, fatty acid amide hydrolase (FAAH) (Homo sapiens, UniProt O00519); assay: Kinetic study of FAAH toward substrates; format: biochemical
T3 construct: made in house; host or cells: Trichoplusia ni High Five cells infected with recombinant baculovirus Ac-hFAAH; microsomal fraction
T3 sequence (O00519 1-579): T1 sequence (O00519 1-579)
Procedure: as §1
Kinetic study. The kinetic assays were also performed as described above for the sensitivity assay. Briefly, a total volume of 201 μl contained 0.1 M sodium phosphate buffer (pH 8.0) (190 μl) with 1% glycerol and 0.1% Triton-X 100, protein solution (10 μl), and substrate solution (1 μl). The protein content was 0.67 μg per well (201 μl). The concentration of substrate (13) in DMSO was 200, 100, 50, 25, 12.5, 6.25, 3.13, 1.56, or 0.78 μM. Similarly, the concentration of substrate (17) in DMSO was 100, 50, 25, 12.5, 6.25, 3.13, 1.56, 0.78, or 0.39 μM. Four replicates were applied for each concentration. Reported kinetic data (km and Vmax) were analyzed by the SigmaPlot Enzyme Kinetics software (2001) using the Michaelis-Menten equation for all concentrations.

[9] = protein 0.11 (13), 0.67 (14), 100 (15), 0.5 (17) μg/well, 200 μM (13),(14), 25 μM (15), 50 μM (17)
[10] = FAAH sensitivity assay, Table 2
[11] = absorbance 382 nm, protein 100 μg/well, 25 μM
[12] = pH 8.0, 37° C., 0.67 μg protein per well, Michaelis-Menten

COc1ccc(N)cn1 [Compound 6, 5-amino-2-methoxypyridine]
Em, maximal emission wavelength [1]: 396 nm
Ex, maximal excitation wavelength [1]: 302 nm
relative fluorescent intensity of excitation or emission as function of pH [2]: increased with an increase of pH value
ØF, fluorescence quantum yield [3]: 0.95
εmax, molar extinction coefficient [4]: 2340 M⁻¹ cm⁻¹

COc1ccc(NC(C)=O)cn1 [Compound 10, N-(6-methoxypyridin-3-yl) acetamide]
Specific activity, Microsomes from High Five cells [5]: 56 ± 2 pmol/min/mg protein

CCCCCCCC(=O)Nc1ccc2c(C(F)(F)F)cc(=O)oc2c1 [Compound 15, N-(4-(trifluoromethyl)-2-oxo-2H-chromen-7-yl) octanamide]
melting point: 136.6 to 137.1 °C
base line, Average [6, 9]: 132 RFU
signal, Average [6, 9]: 161 RFU
times less sensitive than substrate (13) [6, 10]: at least 900 times
times less sensitive than substrate (14) [6, 10]: ≥ 150 times

CCCCCCCC(=O)Nc1ccc([N+](=O)[O-])cc1 [Compound 16, N-(4-nitrophenyl) octanamide]
melting point: 80.9 to 81.6 °C
base line, Average [6, 11]: 0.16 OD
signal, Average [6, 11]: 0.18 OD

CCCCC/C=C\C/C=C\C/C=C\C/C=C\CCCC(=O)Nc1ccc(OC)nc1 [Compound 17]
enhancement of activity, microsomes from FAAH-expressing cells compared with High Five cells [7]: 4180 times
Specific activity, Microsomes from FAAH cells ([7]; pH 8): 23.5 ± 0.7 nmol/min/mg protein
Selectivity ratio ([8]; Vmax/Km of substrate over that of oleamide (5.5 × 10^−2)): 54.5
Km [8, 12]: 12.5 µM
Vmax [8, 12]: 36.7 nmol/min/mg
base line, Average [6, 9]: 148 RFU
signal, Average [6, 9]: 559* RFU
Protein, lowest detection limit of microsomal FAAH (signal at 10 min ≥ three times base line) ([6]; pH 8): 0.5 μg/200 μ′
lowest detection limit of protein ([6]; signal at 10 min equal to three times base line): 2.5 μg protein/ml
Specific activity, Microsomes from High Five cells [5]: 5.62 ± 0.67 pmol/min/mg protein
